Measured values reported in patent publication US5066664A, “2-(hydroxy-2-alkylphenylamino)-oxazolines and thiazolines as anti-glaucoma and vasoconstrictive agents” (Allergan, Inc., priority 1990, dated 1991).
Counter-ions that a name gives are not always drawn. Like-named read-outs stand apart in the source and are kept apart here.

Columns and labels:
[1] = system: New Zealand white rabbit eyes; test: Intraocular pressure (anti-glaucoma) assay in unanesthetized rabbits, topical unilateral administration; format: in vivo; details: for Maximum Difference in Intraocular Pressure After Solution Administration, Ipsilateral (Treated) Eye: 0.1% (W/V) in distilled water, single 50 microliter drop topically to one eye; for Maximum Difference in Intraocular Pressure After Solution Administration, Contralateral (Untreated) Eye: single 50 microliter drop to the other eye, contralateral (untreated) eye received saline
Description: The anti-glaucoma activity (ability to maintain or reduce intraocular pressure) of the compounds of the present invention was confirmed by the following assay procedure. This assay procedure is generally recognized in the art to provide pertinent information with respect to the anti-glaucomaactivity of the formulations assayed. Thus, each of the compounds of the invention to be tested was dissolved in distilled water at a concentration of 0.1% (W/V). Each of these solutions was administered topically and unilaterally to one eye of a drug-naive, unanesthetized New Zealand white rabbit in a single 50 microliter drop. The contralateral eye received an equal volume of saline prior to determining the intraocular pressure after the mixture was administered. Also, approximately 10 microliters of 0.5% (W/V) proparacine (topical anesthetic) was applied to the corneas of each of the rabbits before determining intraocular pressure. As a control test, six (6) other drug-naive, unanesthetized New Zealand white rabbits were treated and tested as described above except that no compound of the invention was included in the solutions administered to the eyes.
The intraocular pressure was determined in both eyes of each rabbit both before and after the solutions were administered. Such intraocular pressure determinations were made in the conventional manner using conventional equipment.

[2] = system: alpha 1 adrenergic receptors; test: Rabbit Aorta: Alpha 1 adrenergic receptor assay (isolated thoracic aorta rings, tension); details: 37° C., cumulative addition
[3] = target: alpha 1 adrenergic receptors; details: control substance; Shayes and Green, J. Pharmacol. Exp. Ther. 1971, Vol 180, pp 317-325; cited from earlier work

Row | SMILES | Maximum Difference in Intraocular Pressure After Solution Administration, Ipsilateral (Treated) Eye [1] | Maximum Difference in Intraocular Pressure After Solution Administration, Contralateral (Untreated) Eye ([1]; 0.1% (W/V)) | reduction of intraocular pressure in the contralateral eye compared with the ipsilateral eye ([1]; result in words, New Zealand white rabbit, 0.1% (W/V)) | EC50 [2] | EC50 [3]
1 | Cc1c(O)cccc1NC1=NCCO1 [Compound 1, 2-(3-Hydroxy-2-methylphenylamino)-Oxazoline, hydrochloride] | -3.3 ± 1.0 mm Hg | -7.3 ± 1.0 mm Hg | the reduction in the contralateral eye is greater than in the ipsilateral eye | 602 ± 108 nM | 
2 | Cc1c(O)ccc(NC2=NCCO2)c1C.Cl [Compound 2, 2-(2,3-Dimethyl-4-hydroxyphenylamino)-oxazoline, hydrochloride] | -3.9 ± 1.9 mm Hg | -3.3 ± 0.5 mm Hg |  | 19.9 ± 15.6 nM | 
3 | CNC[C@H](O)c1cccc(O)c1 [L-phenylephrine] |  |  |  |  | 182 nM
